Results reported in US20260207578A1, “COMPOUND BASED ON SULFUR/OXYGEN SUBSTITUTED GLUTARIMIDE-BASED ISOINDOLINONE SKELETON AND USE THEREOF” (Gluetacs Therapeutics (Shanghai) Co., LTD., priority 2022, published 2026).

Assays:
[1] = biological target: T1, IKZF1 (Homo sapiens, UniProt Q13422+Q96SW2); experiment: Western-blot assay, substrate protein in hPBMCs; assay type: cell-based; details: hPBMC cells, 24 hours, tested at 50 nM and 500 nM, table does not say which
T1 construct: endogenous in cells; host or cells: human PBMCs (Milecell Biotechnologies)
T1 sequence (Q13422 whole entry): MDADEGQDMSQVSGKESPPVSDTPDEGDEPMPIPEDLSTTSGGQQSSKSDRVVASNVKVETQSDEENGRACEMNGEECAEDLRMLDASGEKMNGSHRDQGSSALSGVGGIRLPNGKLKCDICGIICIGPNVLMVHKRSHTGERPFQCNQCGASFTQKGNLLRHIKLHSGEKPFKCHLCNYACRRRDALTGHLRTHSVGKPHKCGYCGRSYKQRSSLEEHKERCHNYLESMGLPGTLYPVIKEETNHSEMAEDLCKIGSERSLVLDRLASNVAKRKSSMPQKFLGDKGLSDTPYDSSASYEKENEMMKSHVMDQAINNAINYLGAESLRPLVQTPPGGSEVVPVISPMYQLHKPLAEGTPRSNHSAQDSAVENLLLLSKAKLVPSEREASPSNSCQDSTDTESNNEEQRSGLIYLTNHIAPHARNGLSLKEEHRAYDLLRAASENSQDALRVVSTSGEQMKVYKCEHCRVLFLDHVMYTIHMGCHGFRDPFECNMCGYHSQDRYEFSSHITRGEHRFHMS
T1 sequence (Q96SW2 whole entry): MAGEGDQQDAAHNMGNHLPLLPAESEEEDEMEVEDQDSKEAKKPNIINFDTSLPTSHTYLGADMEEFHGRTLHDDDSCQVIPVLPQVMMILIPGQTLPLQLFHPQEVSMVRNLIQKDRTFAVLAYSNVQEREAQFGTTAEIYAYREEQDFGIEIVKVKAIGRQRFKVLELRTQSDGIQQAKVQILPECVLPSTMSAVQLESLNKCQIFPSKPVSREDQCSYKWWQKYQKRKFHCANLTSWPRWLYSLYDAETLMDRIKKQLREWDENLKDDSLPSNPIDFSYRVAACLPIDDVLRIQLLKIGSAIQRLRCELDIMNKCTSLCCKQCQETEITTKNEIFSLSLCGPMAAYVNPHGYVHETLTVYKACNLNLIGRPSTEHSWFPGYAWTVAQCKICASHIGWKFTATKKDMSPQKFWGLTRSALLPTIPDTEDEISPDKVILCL
T1 sequence (Q16531 whole entry partner): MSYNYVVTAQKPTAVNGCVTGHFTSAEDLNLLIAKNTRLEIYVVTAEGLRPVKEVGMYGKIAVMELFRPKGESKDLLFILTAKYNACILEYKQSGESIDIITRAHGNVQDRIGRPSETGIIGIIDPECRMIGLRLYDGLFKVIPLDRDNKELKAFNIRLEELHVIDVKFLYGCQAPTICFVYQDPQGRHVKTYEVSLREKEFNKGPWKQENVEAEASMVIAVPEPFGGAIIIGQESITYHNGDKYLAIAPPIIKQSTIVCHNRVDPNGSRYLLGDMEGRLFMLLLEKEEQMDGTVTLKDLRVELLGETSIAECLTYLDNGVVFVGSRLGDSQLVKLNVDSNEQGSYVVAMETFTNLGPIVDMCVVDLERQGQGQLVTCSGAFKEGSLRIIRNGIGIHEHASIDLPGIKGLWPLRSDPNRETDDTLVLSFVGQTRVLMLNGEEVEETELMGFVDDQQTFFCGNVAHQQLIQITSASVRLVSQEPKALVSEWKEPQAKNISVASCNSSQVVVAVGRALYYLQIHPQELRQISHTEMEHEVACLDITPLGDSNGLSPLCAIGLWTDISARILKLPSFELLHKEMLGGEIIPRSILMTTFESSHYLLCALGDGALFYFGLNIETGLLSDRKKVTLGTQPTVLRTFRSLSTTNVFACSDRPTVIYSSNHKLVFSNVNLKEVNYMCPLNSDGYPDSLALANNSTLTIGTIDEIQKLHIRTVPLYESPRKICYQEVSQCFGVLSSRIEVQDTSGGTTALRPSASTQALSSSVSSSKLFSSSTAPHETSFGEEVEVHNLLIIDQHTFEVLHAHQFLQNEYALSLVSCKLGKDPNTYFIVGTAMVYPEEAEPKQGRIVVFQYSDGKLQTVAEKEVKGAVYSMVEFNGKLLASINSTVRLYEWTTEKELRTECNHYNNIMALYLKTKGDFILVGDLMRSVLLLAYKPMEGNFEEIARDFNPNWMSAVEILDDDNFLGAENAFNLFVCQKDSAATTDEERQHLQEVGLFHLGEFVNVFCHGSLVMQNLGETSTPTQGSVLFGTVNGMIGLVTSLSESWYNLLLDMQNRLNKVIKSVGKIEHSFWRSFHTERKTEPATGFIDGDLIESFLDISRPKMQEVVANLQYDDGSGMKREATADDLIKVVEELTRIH
Method in brief: (§1)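 hPBMCs (1×10^6 cells/mL) exposed 24 h to compound at 50 nM and 500 nM, lysed, and probed by Western blot. Band grayscale normalized to internal control gives % protein remaining versus DMSO; DC50 from concentration-response fit at half DMSO band intensity.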

[2] = biological target: T2, IKZF3 (Homo sapiens, UniProt Q96SW2+Q9UKT9); experiment: Western-blot assay, substrate protein in hPBMCs; assay type: cell-based; details: hPBMC cells, 24 hours, tested at 50 nM and 500 nM, table does not say which
T2 construct: endogenous in cells; host or cells: human PBMCs (Milecell Biotechnologies)
T2 sequence (Q9UKT9 whole entry): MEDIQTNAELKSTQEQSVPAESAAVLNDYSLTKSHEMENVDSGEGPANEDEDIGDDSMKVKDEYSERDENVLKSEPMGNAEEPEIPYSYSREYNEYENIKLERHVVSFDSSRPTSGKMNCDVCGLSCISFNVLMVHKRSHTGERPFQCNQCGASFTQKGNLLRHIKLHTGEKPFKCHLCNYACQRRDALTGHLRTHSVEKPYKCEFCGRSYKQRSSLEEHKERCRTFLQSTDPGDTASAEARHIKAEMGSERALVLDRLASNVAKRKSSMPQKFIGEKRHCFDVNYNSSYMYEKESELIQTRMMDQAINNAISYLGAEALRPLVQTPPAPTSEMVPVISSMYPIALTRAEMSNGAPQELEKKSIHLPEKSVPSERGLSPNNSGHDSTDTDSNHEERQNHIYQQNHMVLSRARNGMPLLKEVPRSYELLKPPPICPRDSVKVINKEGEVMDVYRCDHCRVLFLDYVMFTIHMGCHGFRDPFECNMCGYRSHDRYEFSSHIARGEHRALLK
T2 sequence (Q96SW2 whole entry): as the sequence (Q96SW2 whole entry) above
T2 sequence (Q16531 whole entry partner): as the sequence (Q16531 whole entry partner) above
Method in brief: as §1

[3] = system: MM.1R; experiment: Half inhibitory concentration (IC50) against tumor cells, Cell Counting Kit-8; assay type: cell-based; details: Homo sapiens, CCK-8, 96 h treatment, read-out: inhibitory activity (IC50, nM) against tumor cells proliferation
Protocol: (§2) The tumor cells used herein were cultured in a cell culture medium listed in table A at 37° C. in an incubator with 5% CO2.
(§3) After the cells were treated with the compounds of the present disclosure for a period of time, the cell viability detection reagent was added to the culture medium for cell viability assessment according to the instructions provided with the CCK-8 kit. […] The growth inhibition of the compounds of the present disclosure on cells was plotted by Prism Graphpad software, and the IC50 values of the compounds of the present disclosure were calculated therefrom.

[4] = system: CAL-62; experiment: as above; assay type: cell-based; details: Homo sapiens, CCK-8, 96 h treatment, read-out: inhibitory activity (IC50, nM) against tumor cells proliferation
Protocol: as §2, §3

[5] = system: Kasumi-1; experiment: as above; assay type: cell-based; details: Homo sapiens, CCK-8, 96 h treatment, read-out: inhibitory activity (IC50, nM) against tumor cells proliferation
Protocol: as §2, §3

[6] = system: CCRF-CEM; experiment: as above; assay type: cell-based; details: Homo sapiens, CCK-8, 96 h treatment, read-out: inhibitory activity (IC50, nM) against tumor cells proliferation
Protocol: as §2, §3

[7] = system: Daudi; experiment: as above; assay type: cell-based; details: Homo sapiens, CCK-8, 96 h treatment, read-out: inhibitory activity (IC50, nM) against tumor cells proliferation
Protocol: as §2, §3

[8] = system: MV-4-11; experiment: as above; assay type: cell-based; details: Homo sapiens, MV4-11, CCK-8, 96 h treatment, read-out: inhibitory activity (IC50, nM) against tumor cells proliferation
Protocol: as §2, §3

[9] = system: THP-1; experiment: as above; assay type: cell-based; details: Homo sapiens, CCK-8, 96 h treatment, read-out: inhibitory activity (IC50, nM) against tumor cells proliferation
Protocol: as §2, §3

[10] = system: MDA-MB-231; experiment: as above; assay type: cell-based; details: Homo sapiens, CCK-8, 96 h treatment, read-out: inhibitory activity (IC50, nM) against tumor cells proliferation
Protocol: as §2, §3

[11] = system: JEKO-1; experiment: as above; assay type: cell-based; details: Homo sapiens, CCK-8, 96 h treatment, read-out: inhibitory activity (IC50, nM) against tumor cells proliferation
Protocol: as §2, §3

[12] = system: MM.1S; experiment: as above; assay type: cell-based; details: Homo sapiens, MM1.S, CCK-8, 96 h treatment, read-out: inhibitory activity (IC50, nM) against tumor cells proliferation
Protocol: as §2, §3

[13] = biological target: T3, human Cereblon WT GST-tagged protein (Homo sapiens, UniProt Q96SW2); experiment: CRBN-binding affinity, HTRF (CEREBLON BINDING kit); details: displacement of Thalidomide-Re reagent, 3 hours at room temperature
T3 construct: purchased CISBIO 64BDCRBNPEH
T3 sequence (Q96SW2 whole entry): as the sequence (Q96SW2 whole entry) above
Method in brief: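 HTRF competition format: compound, GST-tagged wild-type human Cereblon, Thalidomide-Re tracer and GST Eu antibody were combined in PROTAC binding buffer. Binding was derived from emission at 620 nm relative to blank and solvent control wells.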

[14] = biological target: T4, IKZF2 (Homo sapiens, UniProt Q96SW2+Q9UKS7); experiment: Western-blot assay, substrate protein in hPBMCs; assay type: cell-based; details: hPBMC cells, 24 hours, tested at 50 nM and 500 nM, table does not say which
T4 construct: endogenous in cells; host or cells: human PBMCs (Milecell Biotechnologies)
T4 sequence (Q9UKS7 whole entry): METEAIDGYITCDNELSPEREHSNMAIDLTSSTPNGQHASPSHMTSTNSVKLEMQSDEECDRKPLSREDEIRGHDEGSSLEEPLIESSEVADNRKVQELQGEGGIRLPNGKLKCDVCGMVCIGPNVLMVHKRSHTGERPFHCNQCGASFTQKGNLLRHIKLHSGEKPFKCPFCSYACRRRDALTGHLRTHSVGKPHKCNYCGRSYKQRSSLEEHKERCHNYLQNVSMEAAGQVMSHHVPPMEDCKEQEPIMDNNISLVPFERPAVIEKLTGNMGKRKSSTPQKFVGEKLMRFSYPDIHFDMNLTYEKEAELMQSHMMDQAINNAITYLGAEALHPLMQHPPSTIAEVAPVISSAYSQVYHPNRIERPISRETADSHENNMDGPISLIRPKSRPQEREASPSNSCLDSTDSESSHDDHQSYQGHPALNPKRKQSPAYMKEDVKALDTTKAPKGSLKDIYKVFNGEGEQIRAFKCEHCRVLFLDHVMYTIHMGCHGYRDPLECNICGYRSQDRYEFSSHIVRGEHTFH
T4 sequence (Q96SW2 whole entry): as the sequence (Q96SW2 whole entry) above
T4 sequence (Q16531 whole entry partner): as the sequence (Q16531 whole entry partner) above
Method in brief: (§4)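 Steps: treat hPBMCs 24 h; lyse on ice in RIPA with phosphatase inhibitors; quantify protein by BCA; denature at 95 °C and blot. Remaining protein (%) is the target/internal-control band ratio, normalised; degradation rate is its complement.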

[15] = biological target: T5, CK1α (Homo sapiens, UniProt P48729+Q96SW2); experiment: Western-blot assay, substrate protein in hPBMCs; assay type: cell-based; details: hPBMC cells, 24 hours, tested at 50 nM and 500 nM, table does not say which
T5 construct: endogenous in cells; host or cells: human PBMCs (Milecell Biotechnologies)
T5 sequence (P48729 whole entry): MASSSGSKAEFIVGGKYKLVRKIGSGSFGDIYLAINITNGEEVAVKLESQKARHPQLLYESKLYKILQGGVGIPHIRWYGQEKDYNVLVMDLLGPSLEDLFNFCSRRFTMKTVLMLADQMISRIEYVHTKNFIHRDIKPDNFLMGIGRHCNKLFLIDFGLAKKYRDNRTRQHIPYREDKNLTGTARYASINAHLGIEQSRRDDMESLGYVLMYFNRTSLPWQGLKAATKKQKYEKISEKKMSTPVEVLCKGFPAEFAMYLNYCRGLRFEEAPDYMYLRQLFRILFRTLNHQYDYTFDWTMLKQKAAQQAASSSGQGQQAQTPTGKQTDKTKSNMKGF
T5 sequence (Q96SW2 whole entry): as the sequence (Q96SW2 whole entry) above
T5 sequence (Q16531 whole entry partner): as the sequence (Q16531 whole entry partner) above
Method in brief: as §4

[16] = biological target: T6, GSPT1 (Homo sapiens, UniProt P15170+Q96SW2); experiment: Western-blot assay, substrate protein in hPBMCs; assay type: cell-based; details: hPBMC cells, 24 hours, tested at 50 nM and 500 nM, table does not say which
T6 construct: endogenous in cells; host or cells: human PBMCs (Milecell Biotechnologies)
T6 sequence (P15170 whole entry): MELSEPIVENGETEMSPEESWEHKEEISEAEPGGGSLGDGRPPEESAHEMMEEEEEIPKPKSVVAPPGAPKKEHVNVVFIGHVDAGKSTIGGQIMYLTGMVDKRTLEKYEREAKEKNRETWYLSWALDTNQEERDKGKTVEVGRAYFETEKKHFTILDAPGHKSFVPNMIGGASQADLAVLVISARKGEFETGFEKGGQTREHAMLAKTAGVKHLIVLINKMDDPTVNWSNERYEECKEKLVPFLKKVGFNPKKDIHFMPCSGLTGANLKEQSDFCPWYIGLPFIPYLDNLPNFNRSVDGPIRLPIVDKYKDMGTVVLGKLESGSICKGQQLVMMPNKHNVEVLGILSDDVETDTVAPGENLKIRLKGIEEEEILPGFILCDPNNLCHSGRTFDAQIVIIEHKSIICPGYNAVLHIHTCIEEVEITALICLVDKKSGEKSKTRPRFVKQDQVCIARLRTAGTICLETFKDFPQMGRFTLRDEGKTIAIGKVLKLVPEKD
T6 sequence (Q96SW2 whole entry): as the sequence (Q96SW2 whole entry) above
T6 sequence (Q16531 whole entry partner): as the sequence (Q16531 whole entry partner) above
Method in brief: as §4

[17] = biological target: T7, Wee1 (Homo sapiens, UniProt P30291+Q96SW2); experiment: Western-blot assay, substrate protein in hPBMCs; assay type: cell-based; details: hPBMC cells, 24 hours, tested at 50 nM and 500 nM, table does not say which
T7 construct: endogenous in cells; host or cells: human PBMCs (Milecell Biotechnologies)
Method in brief: as §4

| Structure (SMILES) | substrate protein remaining % [1] | substrate protein remaining % [2] | IC50 [3] [nM] | IC50 [4] [nM] | IC50 [5] [nM] | IC50 [6] [nM] | IC50 [7] [nM] | IC50 [8] [nM] | IC50 [9] [nM] | IC50 [10] [nM] | IC50 [11] [nM] | IC50 [12] [nM] | IC50 [13] [nM] | substrate protein remaining % [14] | substrate protein remaining % [15] | substrate protein remaining % [16] | substrate protein remaining % [17] |
| --- | --- | --- | --- | --- | --- | --- | --- | --- | --- | --- | --- | --- | --- | --- | --- | --- | --- |
| O=C1CCC(N2Cc3cc(SC4CN(Cc5ccccc5-c5ccc(Cl)cc5)C4)ccc3C2=O)C(=O)N1 (centres unmarked) [GT-03360, 3-(5-((1-((4′-chloro-[1,1′-biphenyl]-2-yl)methyl)azetidin-3-yl)thio)-1-oxoisoindolin-2-yl)piperidine-2,6-dione] | A (0%≤ substrate protein remaining % ≤80%) | A (0%≤ substrate protein remaining % ≤80%) | 50 to 100 | 50 to 100 | 100 to 500 | 50 to 100 | < 1 | 100 to 500 | 10 to 50 | 100 to 500 | 100 to 500 | 100 to 500 | < 500 | A (0%≤ substrate protein remaining % ≤80%) | A (0%≤ substrate protein remaining % ≤80%) | A (0%≤ substrate protein remaining % ≤80%) | – |
| CC1(C)CCC(CN2CCC(Sc3ccc4c(c3)CN(C3CCC(=O)NC3=O)C4=O)C2)=C(c2ccc(Cl)cc2)C1 (centres unmarked) [GT-04245, 3-(5-((1-((4′-chloro-5,5-dimethyl-3,4,5,6-tetrahydro-[1,1′-biphenyl]-2-yl)methyl)pyrrolidin-3-yl)thio)-1-oxoisoindolin-2-yl)piperidine-2,6-dione] | – | – | – | – | – | – | – | – | 500 to 1000 | – | – | – | < 500 | A (0%≤ substrate protein remaining % ≤80%) | – | A (0%≤ substrate protein remaining % ≤80%) | – |
| O=C1CCC(N2Cc3cc(SC4CN(C(=O)c5ccccc5-c5ccc(Cl)cc5)C4)ccc3C2=O)C(=O)N1 (centres unmarked) [GT-03892, 3-(5-((1-(4′-chloro-[1,1′-biphenyl]-2-carbonyl)azetidin-3-yl)thio)-1-oxoisoindolin-2-yl)piperidine-2,6-dione] | A (0%≤ substrate protein remaining % ≤80%) | A (0%≤ substrate protein remaining % ≤80%) | – | 10 to 50 | – | 10 to 50 | – | – | 100 to 500 | – | – | – | < 500 | A (0%≤ substrate protein remaining % ≤80%) | – | A (0%≤ substrate protein remaining % ≤80%) | A (0%≤ substrate protein remaining % ≤80%) |
| Nc1cccc2c1C(=O)N(C1CCC(=O)NC1=O)C2=O (centres unmarked) [pomalidomide, reference compound] | – | – | > 10000 | > 10000 | > 10000 | > 10000 | > 10000 | > 10000 | > 10000 | > 10000 | > 10000 | 500 to 1000 | – | – | – | – | – |
| O=C1CCC(N2Cc3cc(SC4CCN(C(c5ccccc5)c5ccccc5)CC4(F)F)ccc3C2=O)C(=O)N1 (centres unmarked) [GT-06926, 3-(5-((1-benzhydryl-3,3-difluoropiperidin-4-yl)thio)-1-oxoisoindolin-2-yl)piperidine-2,6-dione] | A (0%≤ substrate protein remaining % ≤80%) | A (0%≤ substrate protein remaining % ≤80%) | – | – | 100 to 500 | 50 to 100 | – | 10 to 50 | – | – | – | – | 1000 to 1900 | A (0%≤ substrate protein remaining % ≤80%) | A (0%≤ substrate protein remaining % ≤80%) | A (0%≤ substrate protein remaining % ≤80%) | A (0%≤ substrate protein remaining % ≤80%) |
| O=C1CCC(N2Cc3cc(SC4CCN(C(=O)c5ccccc5-c5ccc(Cl)cc5)CC4)ccc3C2=O)C(=O)N1 (centres unmarked) [GT-06182, 3-(5-((1-(4′-chloro-[1,1′-biphenyl]-2-carbonyl)piperidin-4-yl)thio)-1-oxoisoindolin-2-yl)piperidine-2,6-dione] | A (0%≤ substrate protein remaining % ≤80%) | A (0%≤ substrate protein remaining % ≤80%) | – | – | – | – | – | – | – | – | – | 10 to 50 | < 500 | – | A (0%≤ substrate protein remaining % ≤80%) | A (0%≤ substrate protein remaining % ≤80%) | A (0%≤ substrate protein remaining % ≤80%) |
| O=C1CCC(N2Cc3cc(SC4CCN(Cc5ccccc5-c5ccc(Cl)cc5)CC4)ccc3C2=O)C(=O)N1 (centres unmarked) [GT-03357, 3-(5-((1-((4′-chloro-[1,1′-biphenyl]-2-yl)methyl)piperidin-4-yl)thio)-1-oxoisoindolin-2-yl)piperidine-2,6-dione] | – | A (0%≤ substrate protein remaining % ≤80%) | – | – | – | 100 to 500 | 100 to 500 | – | – | – | – | – | – | – | – | A (0%≤ substrate protein remaining % ≤80%) | – |
| O=C1CCC(N2Cc3cc(OC4CCN(C(=O)c5ccccc5-c5ccc(Cl)cc5)CC4)ccc3C2=O)C(=O)N1 (centres unmarked) [GT-06204, 3-(5-((1-(4′-chloro-[1,1′-biphenyl]-2-carbonyl)piperidin-4-yl)oxy)-1-oxoisoindolin-2-yl)piperidine-2,6-dione] | – | A (0%≤ substrate protein remaining % ≤80%) | – | – | – | – | – | – | – | – | – | 10 to 50 | < 500 | A (0%≤ substrate protein remaining % ≤80%) | A (0%≤ substrate protein remaining % ≤80%) | A (0%≤ substrate protein remaining % ≤80%) | – |
| O=C1CCC(N2Cc3cc(SC4CN(C(c5ccccc5F)c5ccccc5F)C4)ccc3C2=O)C(=O)N1 (centres unmarked) [GT-06758, 3-(5-((1-(bis(2-fluorophenyl)methyl)azetidin-3-yl)thio)-1-oxoisoindolin-2-yl)piperidine-2,6-dione] | A (0%≤ substrate protein remaining % ≤80%) | – | – | – | 100 to 500 | 50 to 100 | – | 50 to 100 | – | – | – | – | < 500 | A (0%≤ substrate protein remaining % ≤80%) | – | A (0%≤ substrate protein remaining % ≤80%) | – |
| O=C1CCC(N2Cc3cc(OC4CN(Cc5ccccc5-c5ccc(Cl)cc5)C4)ccc3C2=O)C(=O)N1 (centres unmarked) [GT-03363, 3-(5-((1-((4′-chloro-[1,1′-biphenyl]-2-yl)methyl)azetidin-3-yl)oxy)-1-oxoisoindolin-2-yl)piperidine-2,6-dione] | A (0%≤ substrate protein remaining % ≤80%) | A (0%≤ substrate protein remaining % ≤80%) | – | – | – | 100 to 500 | – | – | – | – | 100 to 500 | – | 500 to 1000 | – | A (0%≤ substrate protein remaining % ≤80%) | A (0%≤ substrate protein remaining % ≤80%) | A (0%≤ substrate protein remaining % ≤80%) |
| CC1(C)CCC(CN2CCC(Sc3ccc4c(c3)CN(C3CCC(=O)NC3=O)C4=O)CC2)=C(c2ccc(Cl)cc2)C1 (centres unmarked) [GT-03462, 3-(5-((1-((4′-chloro-5,5-dimethyl-3,4,5,6-tetrahydro-[1,1′-biphenyl]-2-yl)methyl)piperidin-4-yl)thio)-1-oxoisoindolin-2-yl)piperidine-2,6-dione] | – | – | – | 100 to 500 | – | 500 to 1000 | – | – | – | – | – | – | 500 to 1000 | – | – | A (0%≤ substrate protein remaining % ≤80%) | A (0%≤ substrate protein remaining % ≤80%) |
